Measurements from ChEMBL document CHEMBL4602617, “Discovery and optimization of heteroaryl piperazines as potent and selective PI3Kδ inhibitors” (Bioorg Med Chem Lett, 2020).

Legend:
AMPK alpha2/beta1/gamma1 = AMPK alpha2/beta1/gamma1 (Homo sapiens, UniProt P54619+P54646+Q9Y478); assay: Inhibition of recombinant full length GST/His-tagged human AMPK alpha2/beta1/gamma1 expressed in baculovirus expression system using Ser/Thr-23 peptide as substrate incubated for 60 mins in presence of ATP by Z'-LYTE assay
[1] = biological target: Glycogen synthase kinase-3 beta (Homo sapiens, UniProt P49841); assay: Inhibition of recombinant full length human His-tagged GSK3beta expressed in baculovirus expression system using serine/threonine-9 peptide as substrate incubated for 60 mins in presence of ATP by Z'-LYTE assay
[2] = biological target: T1, Phosphatidylinositol 4,5-bisphosphate 3-kinase catalytic subunit delta isoform (Homo sapiens, UniProt O00329); assay: Inhibition of PI3K delta (unknown origin) by Adapta assay
T1 sequence (O00329 whole entry): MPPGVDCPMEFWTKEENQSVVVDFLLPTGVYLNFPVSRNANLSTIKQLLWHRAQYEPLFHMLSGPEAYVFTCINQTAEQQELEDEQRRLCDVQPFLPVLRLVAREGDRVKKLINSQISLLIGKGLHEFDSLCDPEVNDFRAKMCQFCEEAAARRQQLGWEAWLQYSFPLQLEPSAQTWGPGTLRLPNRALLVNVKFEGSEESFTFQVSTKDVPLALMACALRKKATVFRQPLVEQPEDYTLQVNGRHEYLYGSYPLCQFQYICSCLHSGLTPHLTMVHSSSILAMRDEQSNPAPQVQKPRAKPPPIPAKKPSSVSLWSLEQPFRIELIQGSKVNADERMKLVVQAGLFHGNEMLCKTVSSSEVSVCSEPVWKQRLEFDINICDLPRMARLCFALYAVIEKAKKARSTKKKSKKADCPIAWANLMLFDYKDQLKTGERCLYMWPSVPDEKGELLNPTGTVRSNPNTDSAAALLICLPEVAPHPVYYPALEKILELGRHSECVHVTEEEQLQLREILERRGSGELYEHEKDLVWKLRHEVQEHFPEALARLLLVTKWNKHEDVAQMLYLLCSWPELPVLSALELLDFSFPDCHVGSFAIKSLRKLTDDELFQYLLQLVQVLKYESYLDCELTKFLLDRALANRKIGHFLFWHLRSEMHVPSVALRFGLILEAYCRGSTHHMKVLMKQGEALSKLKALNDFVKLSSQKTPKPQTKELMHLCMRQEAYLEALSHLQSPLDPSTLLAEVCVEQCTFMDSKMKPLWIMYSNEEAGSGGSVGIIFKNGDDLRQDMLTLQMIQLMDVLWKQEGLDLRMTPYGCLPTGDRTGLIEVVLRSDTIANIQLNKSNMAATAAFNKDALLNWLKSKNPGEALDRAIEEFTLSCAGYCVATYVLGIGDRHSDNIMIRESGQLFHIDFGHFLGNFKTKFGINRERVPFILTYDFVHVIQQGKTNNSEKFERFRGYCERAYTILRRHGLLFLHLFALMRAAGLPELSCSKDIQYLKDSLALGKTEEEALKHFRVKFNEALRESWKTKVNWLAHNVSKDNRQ

[3] = biological target: Peroxisome proliferator-activated receptor gamma (Homo sapiens) (UniProt P37231); assay: Displacement of [3H]rosiglitazone from […] human recombinant PPARgamma LBD domain expressed in insect cells at 10 uM measured after 24 hrs by radiometric scintillation analysis relative to control
Chain of Peroxisome proliferator-activated receptor gamma (Homo sapiens) (P37231 whole entry, the tested form may be a part): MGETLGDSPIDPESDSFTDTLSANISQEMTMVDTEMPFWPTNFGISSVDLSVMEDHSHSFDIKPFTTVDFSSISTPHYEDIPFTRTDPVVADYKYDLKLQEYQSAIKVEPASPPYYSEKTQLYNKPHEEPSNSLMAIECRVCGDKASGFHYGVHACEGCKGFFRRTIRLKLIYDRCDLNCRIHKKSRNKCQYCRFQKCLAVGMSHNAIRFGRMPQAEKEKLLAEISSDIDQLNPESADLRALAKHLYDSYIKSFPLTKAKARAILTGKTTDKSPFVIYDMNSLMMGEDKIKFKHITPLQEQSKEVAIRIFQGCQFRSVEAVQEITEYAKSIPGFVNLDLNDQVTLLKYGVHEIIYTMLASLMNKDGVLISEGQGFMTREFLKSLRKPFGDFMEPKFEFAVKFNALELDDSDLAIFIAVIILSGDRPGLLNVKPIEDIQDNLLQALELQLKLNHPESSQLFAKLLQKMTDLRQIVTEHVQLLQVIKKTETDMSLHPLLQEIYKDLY

[4] = biological target: Glutamate NMDA receptor (Rattus norvegicus) (UniProt P35439+Q00959+Q00960+Q00961+Q62645+Q8VHN2+Q9R1M7); assay: Displacement of [3H]CGP-39653 from glutamate NMDA receptor in Wistar rat cerebral cortical membranes at 10 uM incubated for 20 mins by radiometric scintillation analysis relative to control
[5] = biological target: Glucocorticoid receptor (Homo sapiens) (UniProt P04150); assay: Displacement of [3H]dexamethasone from full length human recombinant glucocorticoid receptor expressed in insect cells at 10 uM incubated for 24 hrs by radiometric scintillation analysis relative to control
[6] = biological target: D(2) dopamine receptor (Homo sapiens) (UniProt P14416); assay: Displacement of [3H]spiperone from recombinant full length human recombinant D2S receptor expressed in CHO cells at 10 uM measured after 120 mins by radiometric scintillation analysis relative to control; type: cell-based
Chain of D(2) dopamine receptor (Homo sapiens) (P14416 whole entry): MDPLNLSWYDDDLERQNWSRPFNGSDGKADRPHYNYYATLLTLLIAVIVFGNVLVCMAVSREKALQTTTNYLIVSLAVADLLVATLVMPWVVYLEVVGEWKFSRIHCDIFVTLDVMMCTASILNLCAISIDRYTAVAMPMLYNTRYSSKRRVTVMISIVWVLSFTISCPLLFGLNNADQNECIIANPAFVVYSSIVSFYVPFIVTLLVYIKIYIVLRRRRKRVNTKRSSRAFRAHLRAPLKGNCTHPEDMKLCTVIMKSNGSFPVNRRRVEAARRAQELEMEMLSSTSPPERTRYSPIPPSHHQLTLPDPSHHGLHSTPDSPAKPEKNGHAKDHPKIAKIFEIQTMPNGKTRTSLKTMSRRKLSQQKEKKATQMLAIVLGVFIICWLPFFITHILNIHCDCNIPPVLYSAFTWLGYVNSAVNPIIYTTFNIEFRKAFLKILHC

[7] = biological target: Alpha-2A adrenergic receptor (Homo sapiens) (UniProt P08913); assay: Displacement of [3H]rauwolscine from full-length recombinant human alpha2A receptor expressed in CHOK1 cells at 10 uM measured after 60 mins by scintillation counting method relative to control; type: cell-based; settings: CHO-K1
Chain of Alpha-2A adrenergic receptor (Homo sapiens) (P08913 whole entry): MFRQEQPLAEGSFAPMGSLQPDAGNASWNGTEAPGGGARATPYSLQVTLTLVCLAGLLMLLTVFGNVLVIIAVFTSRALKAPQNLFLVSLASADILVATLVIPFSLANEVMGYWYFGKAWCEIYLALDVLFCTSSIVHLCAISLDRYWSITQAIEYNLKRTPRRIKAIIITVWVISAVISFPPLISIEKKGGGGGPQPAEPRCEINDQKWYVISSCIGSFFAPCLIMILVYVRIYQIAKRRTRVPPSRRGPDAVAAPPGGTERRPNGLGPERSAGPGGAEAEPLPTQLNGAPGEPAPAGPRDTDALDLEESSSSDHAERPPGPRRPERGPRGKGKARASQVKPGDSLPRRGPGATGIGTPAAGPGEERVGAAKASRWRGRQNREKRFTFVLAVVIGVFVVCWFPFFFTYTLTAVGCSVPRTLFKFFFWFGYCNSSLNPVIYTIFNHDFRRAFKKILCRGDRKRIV

CDK9/cyclin T1 = CDK9/cyclin T1 (Homo sapiens, UniProt P50750); assay: Inhibition of recombinant full length human His-tagged CDK9/CyclinT1 expressed in baculovirus expression system using CDK7/9tide peptide as substrate incubated for 60 mins in presence of ATP by Adapta assay
Chain of CDK9/cyclin T1 (O60563 whole entry, the tested form may be a part): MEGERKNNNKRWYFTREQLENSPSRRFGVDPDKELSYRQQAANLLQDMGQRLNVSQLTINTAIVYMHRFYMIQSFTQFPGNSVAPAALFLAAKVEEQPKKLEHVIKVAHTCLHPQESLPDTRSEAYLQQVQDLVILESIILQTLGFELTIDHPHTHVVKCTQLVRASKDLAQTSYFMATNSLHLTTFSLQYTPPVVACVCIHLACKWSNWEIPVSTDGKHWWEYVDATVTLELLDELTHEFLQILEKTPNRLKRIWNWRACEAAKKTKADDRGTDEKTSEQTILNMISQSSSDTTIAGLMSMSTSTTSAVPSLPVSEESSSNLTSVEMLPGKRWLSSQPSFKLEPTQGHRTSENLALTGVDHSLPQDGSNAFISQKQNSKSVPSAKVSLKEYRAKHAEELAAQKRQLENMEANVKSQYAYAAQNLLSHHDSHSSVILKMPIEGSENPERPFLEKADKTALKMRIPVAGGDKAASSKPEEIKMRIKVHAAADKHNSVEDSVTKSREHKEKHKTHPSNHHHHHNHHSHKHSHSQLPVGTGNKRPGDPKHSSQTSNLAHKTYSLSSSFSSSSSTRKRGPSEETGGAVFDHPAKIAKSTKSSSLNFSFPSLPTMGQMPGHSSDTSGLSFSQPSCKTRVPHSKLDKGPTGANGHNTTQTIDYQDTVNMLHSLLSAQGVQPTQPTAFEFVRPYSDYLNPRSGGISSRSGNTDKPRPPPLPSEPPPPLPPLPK
Chain of CDK9/cyclin T1 (P50750 whole entry, the tested form may be a part): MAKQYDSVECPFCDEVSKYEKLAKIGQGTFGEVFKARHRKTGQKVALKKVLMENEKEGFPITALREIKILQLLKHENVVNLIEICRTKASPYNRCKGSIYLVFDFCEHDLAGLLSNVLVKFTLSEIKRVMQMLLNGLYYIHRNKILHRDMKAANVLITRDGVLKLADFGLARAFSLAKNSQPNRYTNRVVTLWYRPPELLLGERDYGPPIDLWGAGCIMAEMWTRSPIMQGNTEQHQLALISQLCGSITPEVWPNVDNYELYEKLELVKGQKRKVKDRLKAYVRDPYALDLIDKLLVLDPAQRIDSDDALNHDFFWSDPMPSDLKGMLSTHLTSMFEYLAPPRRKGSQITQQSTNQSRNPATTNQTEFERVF

[8] = biological target: Receptor tyrosine-protein kinase erbB-2 (Homo sapiens, UniProt P04626); assay: Inhibition of human recombinant ERBB2 (537 to 636 residues) expressed in Escherichia coli using Tyr 06 as substrate after 1 hr in presence of ATP by Z'-LYTE assay
[9] = biological target: Vascular endothelial growth factor receptor 1 (Homo sapiens, UniProt P17948); assay: Inhibition of recombinant human GST-tagged FLT1 catalytic domain (781 to 1338 residues) expressed in baculovirus expression system using tyrosine-4 peptide as substrate incubated for 60 mins in presence of ATP by Z'-LYTE assay
[10] = biological target: Leukocyte tyrosine kinase receptor (Homo sapiens, UniProt P29376); assay: Inhibition of recombinant human GST-tagged LTK (450 to 864 residues) cytoplasmic domain expressed in baculovirus expression system using tyrosine-6 peptide as substrate incubated for 60 mins in presence of ATP by Z'-LYTE assay
[11] = biological target: Mitogen-activated protein kinase 13 (Homo sapiens, UniProt O15264); assay: Inhibition of recombinant full length human His-tagged p38delta expressed in baculovirus expression system using serine/threonine-3 peptide as substrate incubated for 60 mins in presence of ATP by Z'-LYTE assay
Chain of Mitogen-activated protein kinase 13 (O15264 whole entry, the tested form may be a part): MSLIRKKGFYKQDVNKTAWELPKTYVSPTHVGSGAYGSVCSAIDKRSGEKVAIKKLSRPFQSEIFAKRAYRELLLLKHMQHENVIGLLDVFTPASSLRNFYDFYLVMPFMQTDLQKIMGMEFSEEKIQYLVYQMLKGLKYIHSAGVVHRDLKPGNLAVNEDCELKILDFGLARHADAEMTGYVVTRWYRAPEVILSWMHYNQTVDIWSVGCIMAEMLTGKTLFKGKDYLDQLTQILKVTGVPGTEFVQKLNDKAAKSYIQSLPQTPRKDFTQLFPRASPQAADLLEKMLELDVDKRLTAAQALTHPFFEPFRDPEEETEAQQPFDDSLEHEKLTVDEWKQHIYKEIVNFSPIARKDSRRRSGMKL

[12] = biological target: Serine/threonine-protein kinase Nek1 (Homo sapiens, UniProt Q96PY6); assay: Inhibition of recombinant human GST-tagged NEK1 catalytic domain (1 to 505 residues) expressed in baculovirus expression system using serine/threonine-7 peptide as substrate incubated for 60 mins in presence of ATP by Z'-LYTE assay
[13] = biological target: Serine/threonine-protein kinase Nek2 (Homo sapiens, UniProt P51955); assay: Inhibition of recombinant full length human His-tagged NEK2 expressed in baculovirus expression system using serine/threonine-7 peptide as substrate incubated for 60 mins in presence of ATP by Z'-LYTE assay
Chain of Serine/threonine-protein kinase Nek2 (P51955 whole entry, the tested form may be a part): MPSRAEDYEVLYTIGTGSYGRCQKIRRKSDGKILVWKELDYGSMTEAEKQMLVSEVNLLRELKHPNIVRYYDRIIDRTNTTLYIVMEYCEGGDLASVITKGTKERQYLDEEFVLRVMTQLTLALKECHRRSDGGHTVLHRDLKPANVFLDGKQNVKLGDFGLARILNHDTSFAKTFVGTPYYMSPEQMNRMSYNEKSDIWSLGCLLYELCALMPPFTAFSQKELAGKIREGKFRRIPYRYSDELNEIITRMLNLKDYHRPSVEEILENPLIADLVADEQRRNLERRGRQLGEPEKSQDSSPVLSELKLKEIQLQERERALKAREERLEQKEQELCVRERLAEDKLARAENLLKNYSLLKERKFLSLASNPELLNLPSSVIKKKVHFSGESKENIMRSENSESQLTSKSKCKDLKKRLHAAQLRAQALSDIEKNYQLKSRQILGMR

[14] = biological target: Phosphatidylinositol 4-phosphate 3-kinase C2 domain-containing subunit alpha (Homo sapiens, UniProt O00443); assay: Inhibition of recombinant full length human N-terminal GST-tagged PIK3C2alpha catalytic domain expressed in baculovirus expression system using PI lipid as substrate incubated for 60 mins in presence of ATP by Adapta assay
Chain of Phosphatidylinositol 4-phosphate 3-kinase C2 domain-containing subunit alpha (O00443 whole entry, looked up, the tested form may be a part): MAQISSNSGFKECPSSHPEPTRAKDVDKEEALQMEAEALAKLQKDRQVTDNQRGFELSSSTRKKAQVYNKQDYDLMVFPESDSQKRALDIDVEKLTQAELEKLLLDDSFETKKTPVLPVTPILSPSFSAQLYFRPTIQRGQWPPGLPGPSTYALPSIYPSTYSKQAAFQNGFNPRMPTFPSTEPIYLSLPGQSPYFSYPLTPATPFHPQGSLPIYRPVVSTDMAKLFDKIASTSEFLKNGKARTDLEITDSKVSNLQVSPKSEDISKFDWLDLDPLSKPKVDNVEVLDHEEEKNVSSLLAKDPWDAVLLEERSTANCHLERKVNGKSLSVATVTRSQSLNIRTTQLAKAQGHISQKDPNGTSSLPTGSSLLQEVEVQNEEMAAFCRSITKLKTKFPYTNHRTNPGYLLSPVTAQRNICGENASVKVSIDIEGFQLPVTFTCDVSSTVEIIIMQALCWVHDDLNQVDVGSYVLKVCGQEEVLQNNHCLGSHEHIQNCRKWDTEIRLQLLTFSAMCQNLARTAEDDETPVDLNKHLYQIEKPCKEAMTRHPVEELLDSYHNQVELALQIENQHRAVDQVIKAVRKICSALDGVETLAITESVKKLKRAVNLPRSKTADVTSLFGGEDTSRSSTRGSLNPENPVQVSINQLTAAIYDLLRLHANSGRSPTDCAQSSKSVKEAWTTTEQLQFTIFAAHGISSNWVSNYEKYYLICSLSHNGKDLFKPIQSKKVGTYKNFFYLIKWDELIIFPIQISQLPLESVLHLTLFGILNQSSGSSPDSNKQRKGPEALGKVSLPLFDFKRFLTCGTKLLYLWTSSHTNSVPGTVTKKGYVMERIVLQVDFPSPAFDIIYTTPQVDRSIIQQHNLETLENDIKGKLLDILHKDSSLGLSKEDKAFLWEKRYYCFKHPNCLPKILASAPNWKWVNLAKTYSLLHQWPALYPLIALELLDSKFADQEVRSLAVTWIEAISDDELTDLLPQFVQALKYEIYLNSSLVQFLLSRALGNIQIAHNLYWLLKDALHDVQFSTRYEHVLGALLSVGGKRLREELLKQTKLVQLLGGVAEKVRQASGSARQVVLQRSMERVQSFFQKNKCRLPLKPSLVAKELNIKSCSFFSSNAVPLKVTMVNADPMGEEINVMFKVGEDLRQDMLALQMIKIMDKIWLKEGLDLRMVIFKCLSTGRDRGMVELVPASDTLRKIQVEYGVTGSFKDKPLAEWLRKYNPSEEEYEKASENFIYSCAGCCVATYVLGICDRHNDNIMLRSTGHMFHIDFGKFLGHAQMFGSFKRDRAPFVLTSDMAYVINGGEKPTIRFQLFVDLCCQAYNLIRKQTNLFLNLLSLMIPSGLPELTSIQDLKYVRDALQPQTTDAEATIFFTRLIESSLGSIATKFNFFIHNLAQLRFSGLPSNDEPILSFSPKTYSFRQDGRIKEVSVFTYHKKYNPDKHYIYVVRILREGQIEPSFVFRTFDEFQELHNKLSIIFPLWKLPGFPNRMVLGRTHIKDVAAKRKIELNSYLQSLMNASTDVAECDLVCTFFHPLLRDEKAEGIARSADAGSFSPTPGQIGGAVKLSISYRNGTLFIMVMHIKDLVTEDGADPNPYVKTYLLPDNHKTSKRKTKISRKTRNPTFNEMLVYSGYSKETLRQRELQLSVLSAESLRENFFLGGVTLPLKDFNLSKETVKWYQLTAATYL

[15] = biological target: Testis-specific serine/threonine-protein kinase 1 (Homo sapiens, UniProt Q9BXA7); assay: Inhibition of recombinant full length human His-tagged TSSK1 expressed in baculovirus expression system using serine/threonine-4 peptide as substrate incubated for 60 mins in presence of ATP by Z'-LYTE assay

## C[C@@H]1C[C@H]1C(=O)N1CCN(c2cnc(C#N)c(-c3cnn(C)c3)n2)C[C@H]1C
AMPK alpha2/beta1/gamma1
  IC50: > 100 µM
[1]
  IC50: 28.1 µM
[2]
  IC50: < 0.01 µM
[3]
  inhibition: 7%
[4]
  inhibition: -1%
[5]
  inhibition: 7%
[6]
  inhibition: 0%
[7]
  inhibition: 2%
CDK9/cyclin T1
  IC50: > 100 µM
[8]
  IC50: > 100 µM
[9]
  IC50: > 100 µM
[10]
  IC50: > 100 µM
[11]
  IC50: > 100 µM
[12]
  IC50: > 100 µM
[13]
  IC50: > 100 µM
[14]
  IC50: > 100 µM
[15]
  IC50: > 100 µM
